This passage reports LC retention time results from the RepoRT retention time repository (doi:10.1016/j.foodchem.2021.129757).

Structures are written as SMILES.

A short description of the first data set: RP, Agilent ZORBAX RRHD Eclipse Plus C18, 50 × 2.1 mm, 1.8 µm, 30 °C, 0.4 mL/min, estimated dead time 0.28 min; A: water + 0.1% formic acid, pH 3; B: acetonitrile + 0.1% formic acid, pH 3; gradient (min/%B) 0/1 5/10 8/25 9.1/99 10/99 12/1. The settings on record: stereoisomer not certain.
In the case of `O=C(CCc1ccc(O)cc1)c1c(O)cc(O)cc1O` [Phloretin], the LC retention time was 9.14 min.
The same measure, in the same setting: for `COc1cc(-c2oc3cc(O)cc(O)c3c(=O)c2O)ccc1O` [Isorhamnetin] the value was 9.19 min.

The next data set is described as follows: RP, Waters ACQUITY UPLC BEH Shield RP18, 150 × 2.1 mm, 1.7 µm, 40 °C, 0.4 mL/min, estimated dead time 0.83 min; A: water + 0.1% formic acid, pH 3; B: acetonitrile + 0.1% formic acid, pH 3; gradient (min/%B) 0/0 30/50 31/100 37/100 37.1/0. Conditions: stereoisomer not certain.
As to `O=C(CCc1ccc(O)cc1)c1c(O)cc(O)cc1O` [Phloretin], the LC retention time is 21.3 min.
Consider `O=c1cc(-c2ccc(O)cc2)oc2cc(OC3OC(CO)C(O)C(O)C3O)cc(O)c12` (stereo not drawn) [Apigenin 7-O-glucoside], for which the LC retention time is 14.3 min.
Same read-out and setting: for `CC1OC(OC2C(Oc3cc(O)c4c(c3)OC(c3ccc(O)cc3)CC4=O)OC(CO)C(O)C2O)C(O)C(O)C1O` (stereo not drawn) [Naringin] the value was 13 min; for `COc1ccc(C2CC(=O)c3c(O)cc(O)cc3O2)cc1O` (stereo not drawn) [Hesperetin], 21.2 min.
Same read-out and setting: the figure for `CC1OC(OC2C(O)C(OCCc3ccc(O)c(O)c3)OC(CO)C2OC(=O)C=Cc2ccc(O)c(O)c2)C(O)C(O)C1O` (stereo not drawn) [Verbascoside] is 12 min.
Still for that read-out and setting: for `COc1cc(-c2oc3cc(O)cc(O)c3c(=O)c2O)ccc1O` [Isorhamnetin] the value was 24 min.

A further data set can be described thus: RP, Waters ACQUITY UPLC BEH C18, 100 × 2.1 mm, 1.7 µm, 65 °C, 0.4 mL/min, estimated dead time 0.55 min; A: water + 0.1% formic acid, pH 3; B: 80% acetonitrile + 20% acetone + 0.1% formic acid, pH 3; gradient (min/%B) 0/0 5/100 5.5/0 6/0. The settings on record: stereoisomer not certain.
As to `O=C(CCc1ccc(O)cc1)c1c(O)cc(O)cc1O` [Phloretin], the LC retention time is 2.85 min.
Same read-out and setting: for `COc1ccc(C2CC(=O)c3c(O)cc(O)cc3O2)cc1O` (stereo not drawn) [Hesperetin] the value was 2.93 min.

Another data set in a line: RP, Phenomenex Luna C18, 150 × 4.6 mm, 3 µm, 25 °C, 0.5 mL/min, estimated dead time 3.2 min; A: water + 0.1% formic acid, pH 3; B: acetonitrile + 0.1% formic acid, pH 3; gradient (min/%B) 0/0 30/30 35/40 50/80 52/80 60/0 65/0. Conditions: stereoisomer not certain.
As to `O=C(CCc1ccc(O)cc1)c1c(O)cc(O)cc1O` [Phloretin], the LC retention time is 41.2 min.
The same measure, in the same setting: for `O=c1cc(-c2ccc(O)cc2)oc2cc(OC3OC(CO)C(O)C(O)C3O)cc(O)c12` (stereo not drawn) [Apigenin 7-O-glucoside] the value was 27.6 min.
Take `CC1OC(OC2C(Oc3cc(O)c4c(c3)OC(c3ccc(O)cc3)CC4=O)OC(CO)C(O)C2O)C(O)C(O)C1O` (stereo not drawn) [Naringin]: the LC retention time is 26.7 min.
In the case of `COc1ccc(C2CC(=O)c3c(O)cc(O)cc3O2)cc1O` (stereo not drawn) [Hesperetin], the LC retention time was 42.5 min.
Same read-out and setting: the figure for `O=c1c(O)c(-c2ccc(OS(=O)(=O)O)c(O)c2)oc2cc(O)cc(O)c12` [Quercetin 4-O-sulfate] is 47.6 min; for `CC1OC(OC2C(O)C(OCCc3ccc(O)c(O)c3)OC(CO)C2OC(=O)C=Cc2ccc(O)c(O)c2)C(O)C(O)C1O` (stereo not drawn) [Verbascoside] it is 23 min; for `COc1cc(-c2oc3cc(O)cc(O)c3c(=O)c2O)ccc1O` [Isorhamnetin] it is 42.5 min.

The nature of another data set: RP, Merck LiChrospher RP-18, 250 × 4 mm, 5 µm, 35 °C, 0.3 mL/min, estimated dead time 6.7 min; A: water + 0.5% formic acid; B: acetonitrile + 0.5% formic acid; gradient (min/%B) 0/5 10/5 30/15 45/20 65/20 95/54 110/63 115/5 135/5. The settings on record: stereoisomer not certain.
Regarding `O=C(CCc1ccc(O)cc1)c1c(O)cc(O)cc1O` [Phloretin], the LC retention time is 94.8 min.
The same measure, in the same setting: the figure for `COc1cc(-c2oc3cc(O)cc(O)c3c(=O)c2O)ccc1O` [Isorhamnetin] is 98.9 min.

The nature of a further data set: RP, 100 × 0.5 mm, 2.7 µm, 45 °C, 0.015 mL/min, estimated dead time 0.83 min; A: water + 0.9% formic acid; B: acetonitrile + 0.9% formic acid; gradient (min/%B) 0/1 0.5/1 4/95 4.5/1 5/1. The settings on record: stereoisomer not certain.
With `O=C(CCc1ccc(O)cc1)c1c(O)cc(O)cc1O` [Phloretin], the LC retention time is 3.13 min.
Same read-out and setting: the figure for `O=c1cc(-c2ccc(O)cc2)oc2cc(OC3OC(CO)C(O)C(O)C3O)cc(O)c12` (stereo not drawn) [Apigenin 7-O-glucoside] is 2.89 min; for `CC1OC(OC2C(Oc3cc(O)c4c(c3)OC(c3ccc(O)cc3)CC4=O)OC(CO)C(O)C2O)C(O)C(O)C1O` (stereo not drawn) [Naringin] it is 2.56 min.
Same read-out and setting: the figure for `COc1ccc(C2CC(=O)c3c(O)cc(O)cc3O2)cc1O` (stereo not drawn) [Hesperetin] is 3.27 min; for `O=c1c(O)c(-c2ccc(OS(=O)(=O)O)c(O)c2)oc2cc(O)cc(O)c12` [Quercetin 4-O-sulfate] it is 2.82 min.
Same read-out and setting: for `CC1OC(OC2C(O)C(OCCc3ccc(O)c(O)c3)OC(CO)C2OC(=O)C=Cc2ccc(O)c(O)c2)C(O)C(O)C1O` (stereo not drawn) [Verbascoside] the value was 2.44 min.
On to `COc1cc(-c2oc3cc(O)cc(O)c3c(=O)c2O)ccc1O` [Isorhamnetin], for which the LC retention time was 3.24 min.

The next data set can be described thus: RP, Phenomenex Synergi Hydro-RP, 250 × 2 mm, 4 µm, 25 °C, 0.2 mL/min, estimated dead time 2.5 min; A: water + 0.1% formic acid, pH 3; B: acetonitrile + 0.1% formic acid, pH 3; gradient (min/%B) 0/0.5 7/0.5 12/12.5 25/16.3 47/35 48/65 50/65 50.1/0.5. Conditions: stereoisomer not certain.
For the molecule `O=C(CCc1ccc(O)cc1)c1c(O)cc(O)cc1O` [Phloretin], the LC retention time was 50.6 min.
Still for that read-out and setting: for `COc1ccc(C2CC(=O)c3c(O)cc(O)cc3O2)cc1O` (stereo not drawn) [Hesperetin] the value was 51.9 min.

A short description of another data set: RP, Agilent ZORBAX Eclipse XDB-C18, 100 × 2.1 mm, 1.8 µm, 50 °C, 0.4 mL/min, estimated dead time 0.55 min; A: water + 0.1% formic acid, pH 3; B: methanol + 0.1% formic acid, pH 3; gradient (min/%B) 0/2 10/100 14.5/100 14.51/2 16.5/2. The settings on record: stereoisomer not certain.
`O=C(CCc1ccc(O)cc1)c1c(O)cc(O)cc1O` [Phloretin]: the LC retention time is 6.47 min.
The same measure, in the same setting: for `O=c1cc(-c2ccc(O)cc2)oc2cc(OC3OC(CO)C(O)C(O)C3O)cc(O)c12` (stereo not drawn) [Apigenin 7-O-glucoside] the value was 5.5 min; for `CC1OC(OC2C(Oc3cc(O)c4c(c3)OC(c3ccc(O)cc3)CC4=O)OC(CO)C(O)C2O)C(O)C(O)C1O` (stereo not drawn) [Naringin], 5.22 min; for `COc1ccc(C2CC(=O)c3c(O)cc(O)cc3O2)cc1O` (stereo not drawn) [Hesperetin], 6.64 min.
Still for that read-out and setting: for `CC1OC(OC2C(O)C(OCCc3ccc(O)c(O)c3)OC(CO)C2OC(=O)C=Cc2ccc(O)c(O)c2)C(O)C(O)C1O` (stereo not drawn) [Verbascoside] the value was 4.86 min.
Still for that read-out and setting: for `COc1cc(-c2oc3cc(O)cc(O)c3c(=O)c2O)ccc1O` [Isorhamnetin] the value was 7.05 min.

A short description of the next data set: RP, Waters ACQUITY UPLC BEH Shield RP18, 100 × 2.1 mm, 1.7 µm, 30 °C, 0.6 mL/min, estimated dead time 0.37 min; A: water + 0.1% formic acid, pH 3; B: acetonitrile + 0.1% formic acid, pH 3; gradient (min/%B) 0/0 2/0 7/10 22/95 22.1/0 26/0. Conditions: stereoisomer not certain.
As for `O=C(CCc1ccc(O)cc1)c1c(O)cc(O)cc1O` [Phloretin], the LC retention time was 15.6 min.
Same read-out and setting: for `O=c1cc(-c2ccc(O)cc2)oc2cc(OC3OC(CO)C(O)C(O)C3O)cc(O)c12` (stereo not drawn) [Apigenin 7-O-glucoside] the value was 13.5 min; for `CC1OC(OC2C(Oc3cc(O)c4c(c3)OC(c3ccc(O)cc3)CC4=O)OC(CO)C(O)C2O)C(O)C(O)C1O` (stereo not drawn) [Naringin], 13 min; for `COc1ccc(C2CC(=O)c3c(O)cc(O)cc3O2)cc1O` (stereo not drawn) [Hesperetin], 15.5 min.
With `O=c1c(O)c(-c2ccc(OS(=O)(=O)O)c(O)c2)oc2cc(O)cc(O)c12` [Quercetin 4-O-sulfate], the LC retention time is 19.5 min.
Turning to `CC1OC(OC2C(O)C(OCCc3ccc(O)c(O)c3)OC(CO)C2OC(=O)C=Cc2ccc(O)c(O)c2)C(O)C(O)C1O` (stereo not drawn) [Verbascoside], the LC retention time was 12.6 min.
As for `COc1cc(-c2oc3cc(O)cc(O)c3c(=O)c2O)ccc1O` [Isorhamnetin], the LC retention time is 16.4 min.

A short description of the next data set: RP, Agilent InfinityLab Poroshell 120 EC-C18, 100 × 3 mm, 2.7 µm, 25 °C, 0.4 mL/min, estimated dead time 1.1 min; A: water + 0.1% formic acid, pH 3; B: acetonitrile + 0.1% formic acid, pH 3; gradient (min/%B) 0/5 10/25 20/40 24/90 25/90 26/5 30/5. The settings on record: stereoisomer not certain.
For `O=C(CCc1ccc(O)cc1)c1c(O)cc(O)cc1O` [Phloretin], the LC retention time was 16.7 min.
On the same count and under the same terms, for `O=c1cc(-c2ccc(O)cc2)oc2cc(OC3OC(CO)C(O)C(O)C3O)cc(O)c12` (stereo not drawn) [Apigenin 7-O-glucoside] the value was 10.7 min; for `CC1OC(OC2C(Oc3cc(O)c4c(c3)OC(c3ccc(O)cc3)CC4=O)OC(CO)C(O)C2O)C(O)C(O)C1O` (stereo not drawn) [Naringin], 10.6 min.
Same read-out and setting: for `COc1ccc(C2CC(=O)c3c(O)cc(O)cc3O2)cc1O` (stereo not drawn) [Hesperetin] the value was 17.4 min.
Regarding `O=c1c(O)c(-c2ccc(OS(=O)(=O)O)c(O)c2)oc2cc(O)cc(O)c12` [Quercetin 4-O-sulfate], the LC retention time is 12.9 min.
Same read-out and setting: the figure for `CC1OC(OC2C(O)C(OCCc3ccc(O)c(O)c3)OC(CO)C2OC(=O)C=Cc2ccc(O)c(O)c2)C(O)C(O)C1O` (stereo not drawn) [Verbascoside] is 10.2 min.
The same measure, in the same setting: the figure for `COc1cc(-c2oc3cc(O)cc(O)c3c(=O)c2O)ccc1O` [Isorhamnetin] is 17.6 min.
